Measured values from patent US10308644B2, “Heterocyclic compounds as immunomodulators” (Incyte Corporation, priority 2016, dated 2019).

Molecular target: PD-1/PD-L1 (Homo sapiens (Human), UniProt Q9NZQ7)
Experiment: PD-1/PD-L1 Homogeneous Time-Resolved Fluorescence (HTRF) Binding Assay
Conditions: recombinant human PD-1 (3 nM) and PD-L1 (10 nM), 25° C., PBS pH 7.4
Procedure, shortened: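 Fc-tagged human PD-1 (25-167, 3 nM) and His-tagged PD-L1 (19-238, 10 nM) preincubated with inhibitor 40 min in PBS pH 7.4, 0.05% Tween-20, 0.1% BSA, 1% DMSO, 25 °C. Binding detected by HTRF (Eu anti-IgG/APC anti-His, 665/620 nm) after 60 min; IC50 from percent control activity.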

Chain of PD-1/PD-L1 (Q9NZQ7 19-238): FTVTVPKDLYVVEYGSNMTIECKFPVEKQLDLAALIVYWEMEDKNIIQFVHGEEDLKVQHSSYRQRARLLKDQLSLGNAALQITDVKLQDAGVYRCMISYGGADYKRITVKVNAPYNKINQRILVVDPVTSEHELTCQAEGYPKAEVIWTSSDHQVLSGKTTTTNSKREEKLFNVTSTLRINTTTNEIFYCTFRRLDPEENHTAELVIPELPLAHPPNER

IC50, ≤ 10 nM:
Cc1c(-c2nc3cc(CN4CC[C@@](C)(C(=O)O)C4)cc(C#N)c3o2)cccc1-c1cccc(-c2nc3c(s2)CN(C(=O)CN(C)[C@H](C)CO)C3)c1C [Example 225, (R)-1-((7-cyano-2-(3′-(5-(2-(((R)-1-hydroxypropan-2-yl)(methyl)amino)acetyl)-5,6-dihydro-4H-pyrrolo[3,4-d]thiazol-2-yl)-2,2′-dimethylbiphenyl-3-yl)benzo[d]oxazol-5-yl)methyl)-3-methylpyrrolidine-3-carboxylic acid]
Cc1c(-c2nc3cc(CN4CC[C@@H](C(=O)O)C4)cc(Cl)c3o2)cccc1-c1cccc(N2CCC(N[C@H]3C[C@@H](O)C3)CC2)c1Cl [Example 45, (R)-1-((7-chloro-2-(2′-chloro-3′-(4-((1s,3s)-3-hydroxycyclobutylamino)piperidin-1-yl)-2-methylbiphenyl-3-yl)benzo[d]oxazol-5-yl)methyl)pyrrolidine-3-carboxylic acid]
Cc1c(-c2nc3cc(CN4CC[C@@](C)(C(=O)O)C4)cc(C#N)c3o2)cccc1-c1cccc(Nc2nccc3cc(CN4CC[C@H](O)C4)cnc23)c1Cl [Example 34, (R)-1-((2-(2′-chloro-3′-(3-(((S)-3-hydroxypyrrolidin-1-yl)methyl)-1,7-naphthyridin-8-ylamino)-2-methylbiphenyl-3-yl)-7-cyanobenzo[d]oxazol-5-yl)methyl)-3-methylpyrrolidine-3-carboxylic acid]
CCN(C)CC(=O)N1Cc2nc(-c3cccc(-c4cccc(-c5nc6cc(CN7CC8(C(=O)O)CC7C8)cc(C#N)c6o5)c4C)c3C)oc2C1 [Example 242, 2-((7-cyano-2-(3′-(5-(N-ethyl-N-methylglycyl)-5,6-dihydro-4H-pyrrolo[3,4-d]oxazol-2-yl)-2,2′-dimethyl-[1,1′-biphenyl]-3-yl)benzo[d]oxazol-5-yl)methyl)-2-azabicyclo[2.1.1]hexane-4-carboxylic acid]
Cc1c(-c2nc3c(o2)CN(C(=O)CN2CCC(O)CC2)C3)cccc1-c1cccc(-c2nc3cc(CN4CC[C@@](C)(C(=O)O)C4)cc(C#N)c3o2)c1C [Example 249, (R)-1-((7-cyano-2-(3′-(5-(2-(4-hydroxypiperidin-1-yl)acetyl)-5,6-dihydro-4H-pyrrolo[3,4-d]oxazol-2-yl)-2,2′-dimethyl-[1,1′-biphenyl]-3-yl)benzo[d]oxazol-5-yl)methyl)-3-methylpyrrolidine-3-carboxylic acid]
Cc1c(Nc2nccc3cc(CN4CC[C@@H](O)C4)cnc23)cccc1-c1cccc(-c2nc3cc(CN4CC[C@@](C)(C(=O)O)C4)cc(C#N)c3o2)c1C [Example 100, (R)-1-((7-cyano-2-(3′-(3-(((R)-3-hydroxypyrrolidin-1-yl)methyl)-1,7-naphthyridin-8-ylamino)-2,2′-dimethylbiphenyl-3-yl)benzo[d]oxazol-5-yl)methyl)-3-methylpyrrolidine-3-carboxylic acid]
Cc1c(-c2nc3cc(CN4CC[C@@](C)(C(=O)O)C4)cc(C#N)c3o2)cccc1-c1cccc(-c2nc3c(s2)CN(C(=O)CN[C@H]2C[C@H](O)C2)C3)c1C [Example 229, (R)-1-((7-cyano-2-(3′-(5-(2-(trans-3-hydroxycyclobutylamino)acetyl)-5,6-dihydro-4H-pyrrolo[3,4-d]thiazol-2-yl)-2,2′-dimethylbiphenyl-3-yl)benzo[d]oxazol-5-yl)methyl)-3-methylpyrrolidine-3-carboxylic acid]
Cc1c(-c2nc3cc(CN4CC[C@@H](O)C4)cc(Cl)c3o2)cccc1-c1cccc(NC(=O)c2cc(CN3CC[C@@H](C(=O)O)C3)cn(C)c2=O)c1Cl [Example 151, (R)-1-((5-(2-chloro-3′-(7-chloro-5-(((R)-3-hydroxypyrrolidin-1-yl)methyl)benzo[d]oxazol-2-yl)-2′-methylbiphenyl-3-ylcarbamoyl)-1-methyl-6-oxo-1,6-dihydropyridin-3-yl)methyl)pyrrolidine-3-carboxylic acid]
Cc1c(-c2nc3cc(CN4CC[C@@H](C(=O)O)C4)cc(C#N)c3o2)cccc1-c1cccc(Nc2nccc3cc(CN4CC[C@H](O)C4)cnc23)c1Cl [Example 30, (R)-1-((2-(2′-chloro-3′-(3-(((S)-3-hydroxypyrrolidin-1-yl)methyl)-1,7-naphthyridin-8-ylamino)-2-methylbiphenyl-3-yl)-7-cyanobenzo[d]oxazol-5-yl)methyl)pyrrolidine-3-carboxylic acid]
Cc1c(Nc2nccc3cc(CN4CC[C@@H](O)C4)cnc23)cccc1-c1cccc(-c2nc3cc(CN4CCC(C(=O)O)CC4)cc(C#N)c3o2)c1C [Example 186, (R)-1-((7-cyano-2-(3′-(3-((3-hydroxypyrrolidin-1-yl)methyl)-1,7-naphthyridin-8-ylamino)-2.2′-dimethylbiphenyl-3-yl)benzo [d]oxazol-5-yl)methyl)piperidine-4-carboxylic acid]
CCN1CCN(CC(=O)N2Cc3nc(-c4cccc(-c5cccc(-c6nc7cc(CN8CC[C@@](C)(C(=O)O)C8)cc(C#N)c7o6)c5C)c4C)sc3C2)CC1 [Example 223, (R)-1-((7-cyano-2-(3′-(5-(2-(4-ethylpiperazin-1-yl)acetyl)-5,6-dihydro-4H-pyrrolo[3,4-d]thiazol-2-yl)-2,2′-dimethylbiphenyl-3-yl)benzo[d]oxazol-5-yl)methyl)-3-methylpyrrolidine-3-carboxylic acid]
Cc1c(Nc2ncnc3cc(CN4CC[C@@H](O)C4)cnc23)cccc1-c1cccc(-c2nc3cc(CN4CCC(C(=O)O)CC4)cc(C#N)c3o2)c1C [Example 207, (R)-1-((7-cyano-2-(3′-(7-((3-hydroxypyrrolidin-1-yl)methyl)pyrido [3,2-d]pyrimidin-4-ylamino)-2,2′-dimethylbiphenyl-3-yl)benzo[d]oxazol-5-yl)methyl)piperidine-4-carboxylic acid]
Cc1c(Nc2nccc3cc(CN4CC[C@@](C)(C(=O)O)C4)cnc23)cccc1-c1cccc(-c2nc3cc(CN4CC[C@@H](O)C4)cc(C#N)c3o2)c1C [Example 216, (R)-1-((8-(3′-(7-cyano-5-(((R)-3-hydroxypyrrolidin-1-yl)methyl)benzo [d]oxazol-2-yl)-2,2′-dimethylbiphenyl-3-ylamino)-1,7-naphthyridin-3-yl)methyl)-3-methylpyrrolidine-3-carboxylic acid]
Cc1c(-c2nc3cc(CN4CC[C@H](C(=O)O)C4)cc(Cl)c3o2)cccc1-c1cccc(Nc2nccc3cc(CN4CC[C@H](O)C4)cnc23)c1Cl [Example 32, (S)-1-((7-chloro-2-(2′-chloro-3′-(3-(((S)-3-hydroxypyrrolidin-1-yl)methyl)-1,7-naphthyridin-8-ylamino)-2-methylbiphenyl-3-yl)benzo[d]oxazol-5-yl)methyl)pyrrolidine-3-carboxylic acid]
Cc1c(-c2nc3cc(CN4CC5(C(=O)O)CC4C5)cc(C#N)c3o2)cccc1-c1cccc(-c2nc3c(s2)CN(C(=O)CN(C)C)C3)c1C [Example 235, 2-((7-cyano-2-(3′-(5-(2-(dimethylamino)acetyl)-5,6-dihydro-4H-pyrrolo[3,4-d]thiazol-2-yl)-2,2′-dimethylbiphenyl-3-yl)benzo[d]oxazol-5-yl)methyl)-2-azabicyclo[2.1.1]hexane-4-carboxylic acid]
Cc1c(Nc2ncnc3cccnc23)cccc1-c1cccc(-c2nc3cc(CN4CC[C@@H](C(=O)O)C4)cc(C#N)c3o2)c1C [Example 13, (R)-1-((7-cyano-2-(2,2′-dimethyl-3′-(pyrido[3,2-d]pyrimidin-4-ylamino)biphenyl-3-yl)benzo[d]oxazol-5-yl)methyl)pyrrolidine-3-carboxylic acid]
Cc1c(-c2nc3cc(CN4CC[C@@H](C(=O)O)C4)cc(C#N)c3o2)cccc1-c1cccc(Nc2nccc3cc(CN4CC[C@@H](O)C4)cnc23)c1Cl [Example 84, (R)-1-((2-(2′-chloro-3′-(3-(((R)-3-hydroxypyrrolidin-1-yl)methyl)-1,7-naphthyridin-8-ylamino)-2-methylbiphenyl-3-yl)-7-cyanobenzo[d]oxazol-5-yl)methyl)pyrrolidine-3-carboxylic acid]
Cc1c(Nc2nccc3cc(CN4CC[C@@H](C(=O)O)C4)cnc23)cccc1-c1cccc(-c2nc3cc(CNC[C@H](C)O)cc(C#N)c3o2)c1C [Example 210, (R)-1-((8-(3′-(7-cyano-5-(((S)-2-hydroxypropylamino)methyl)benzo[d]oxazol-2-yl)-2,2′-dimethylbiphenyl-3-ylamino)-1,7-naphthyridin-3-yl)methyl)pyrrolidine-3-carboxylic acid]
CCN1CCc2c(nc(C(=O)Nc3cccc(-c4cccc(-c5nc6cc(CN7CC[C@H](C(=O)O)C7)cc(C#N)c6o5)c4C)c3C)n2C)C1 [Example 37, (S)-1-((7-cyano-2-(3′-(5-ethyl-1-methyl-4,5,6,7-tetrahydro-1H-imidazo[4,5-c]pyridine-2-carboxamido)-2,2′-dimethylbiphenyl-3-yl)benzo[d]oxazol-5-yl)methyl)pyrrolidine-3-carboxylic acid]
Cc1c(Nc2nccc3cc(CNCC4(O)CC4)cnc23)cccc1-c1cccc(-c2nc3cc(CN4CC[C@@](C)(C(=O)O)C4)cc(C#N)c3o2)c1C [Example 199, (R)-1-((7-cyano-2-(3′-(3-(((1-hydroxycyclopropyl)methylamino)methyl)-1,7-naphthyridin-8-ylamino)-2,2′-dimethylbiphenyl-3-yl)benzo[d]oxazol-5-yl)methyl)-3-methylpyrrolidine-3-carboxylic acid]
Cc1c(Nc2nccc3cc(CN[C@@H](C)CO)cnc23)cccc1-c1cccc(-c2nc3cc(CN4CCC(C(=O)O)CC4)cc(C#N)c3o2)c1C [Example 201, (S)-1-((7-cyano-2-(3′-(3-((1-hydroxypropan-2-ylamino)methyl)-1,7-naphthyridin-8-ylamino)-2,2′-dimethylbiphenyl-3-yl)benzo[d]oxazol-5-yl)methyl)piperidine-4-carboxylic acid]
